pIC50: −log10 of the molar value. Converted amounts (≈) assume the structure as drawn. Like-named read-outs stand apart in the source and are kept apart here. Where only a bound is given, the exact number is not on record here.

In experiment [1] the test system is Cholesterol Synthesis in HepG2 Cells. The experiment can be described thus: HepG2 cell culture model, 14C-acetate incorporation assay. It is filed as cell-based, human. The note with it: for % Inhibition 14C-Ac / inhibition at 10 µM: 10 µM, about 4 hours; for inhibition at 10 µM: Homo sapiens, HepG2, read-out: % Inhibition 14C-Ac; for pIC50: read-out: IC₅₀; for Rel. Potency: γ-Tocotrienol = 1.0. Here is the method:
HepG2 cells obtained from the American Type Culture Collection were routinely passaged in RPMI-1640 plus 10% fetal bovine serum (FBS) and were subcultured into 35 mm diameter wells for experiments. […] The LDS medium supplement was prepared according to Cham et al., J. Lipid Res., 17: 176-181, (1976). After about 16 hours in LDS containing media, test compounds were added in dimetthylsulfoxide vehicle (0.5% v/v final conc.) for the period of time indicated in the data (generally 4 hours). Cholesterol synthesis was then directly determined by the incorporation of 2-14C-acetate (1.8-3.0 mCi/mmol) into digitonin-precipitable sterols essentially as described for the rat hepatocyte methol above. Greater than 97% of the radiolabelled sterol isolated by this procedure was cholesterol as judged by HPLC. Percent inhibition was calculated from the average of duplicates or triplicates vs. controls receiving vehicle.
(§1) The human hepatoma HepG2 cell culture model was employed to compare the intrinsic activities of the tocotrienols. HepG2 cells were incubated with the indicated compounds for about 4 hours at 10 µM. Cholestrol synthesis was assayed by 14C-acetate incorporation and HMG-CoA reductase suppression was assayed in the isolated microsomal fraction. Cholesterol synthesis inhibition was assayed by 14C-acetate incorporation after preincubation of HepG2 cells with the compounds for about 2 hours or about 4 hours (Example IV). […] As the data in Figure 1 indicate, gamma-tocotrienol has an even greater relative potency compared to alpha-tocotrienol in the HepG2 cell model than in rat hepatocytes. The IC50s from these studies are given in Table 3, in which it can be seen that the intrinsic potency of gamma-tocotrienol is over 30-fold greater than that of alpha-tocotrienol.

A further experiment relates to HMG-CoA reductase. The experiment can be described thus: HepG2 cell culture model, HMG-CoA reductase suppression assay. Type of experiment: cell-based, human. The note with it: 10 µM, about 4 hours, HepG2 cells. On the procedure:
HMG-CoA reductase suppression in HepG2 cells was conducted by growing cells in RPMT-1640 plus 10% FBS on 100 mm plates, and when cells reached approximately 75% confluency, inducing with LDS (as described above) for about 16 hours prior to assays. Compounds were added using dimethylsulfoxide vehicle (0.5% v/v, final) and after about 4 hours of incubation at 37°, cells were harvested by scraping. Cell pellets were rinsed and lysed by sonication in 1.7 ml cold 50 mM imidazole-HCL, pH 7.2, 50 mM NaCl, 10 mM EDTA, 10 mM EGTA, 5 mM DTT, and 40µM leupeptin). Lysates were centriguged at 150 x g and the supernatant was centrifuged at 100,000 x g in a Beckman airfuge to isolate the post-nuclear total membrane fraction. The membranes were resuspended in 50 mM imidazole-HCl, pH 7.2, 250 mM NaCl, 5 mM DTT, and 20µM leupeptin and used for the assay of HMG-CoA reductase activity by the radiochemical procedure as described previously by Parker et al., J. Biol. Chem., 264: 4877-4887, (1989). Values were normalized for protein content by the Lowry method as cited previously (ibid). HMG-CoA reductase percent suppression was calculated as the decrease in specific activity of HMG-CoA reductase for treated cells vs. controls receiving vehicle. Averages of duplicate cell determinations assayed in duplicate were taken.
as §1
The mechanism of cholesterol synthesis inhibition by tocotrienols involves down regulation of the limiting enzyme of sterol synthesis, HMG-CoA reductase. […] The suppression of HMG-CoA reductase protein expression by gamma-tocotrienol and delta-tocotrienol in HepG2 cells and in rat liver has been confirmed by immunoassy using the Western blot technique (data not shown).

In a further experiment the test system is Hepatic HMGCoA Reductase. The experiment can be described thus: Acute rat HMGCoA reductase suppression model. Type of experiment: in vivo. The note with it: four hours after administration; for Hepatic HMGCoA Reductase Activity (mean ± SEM): 195 µmol/kg (equivalent to 80 mg/kg Example 24) intragastric in olive oil, vehicle control 479 ± 88; for Hepatic HMGCoA Reductase Activity % of Control: 195 µmol/kg intragastric in olive oil. On the procedure:
Using an acute rate model for suppression of hepatic HMGCoA reductase, the effectiveness of three forms of d,l-γ-tocotrienol were compared in vivo. In this assay system, the test agents were administered by intragastric intubation as solutions dissolved in olive oil vehicle. Four hours after administration of test agents, rat liver HMGCoA reductase total activity levels were determined by standard techniques in this laboratory. […]

Another experiment has as its system Lipid Metabolism. Nature of the experiment: Lipid metabolism in normocholesterolemic chickens fed compound in diet. Type of experiment: in vivo. The note with it: CCD + 20 ppm per head (text: 50 ppm).
Experiment [2] concerns Cholesterol Synthesis in Isolated Rat Hepatocytes. Nature of the experiment: Rat hepatocyte cholesterol biosynthesis model (14C-acetate incorporation into digitonin-precipitable sterols). It is filed as cell-based. The note with it: for inhibition at 210 µg/mL: 210 µg/ml (approx. 500 µM), 60 min 14C-acetate incorporation, 0.2% Tween-80; for inhibition at 250 µg/mL: read-out: % Inhibition at µg/ml conc: 250; for inhibition at 500 µg/mL: read-out: % Inhibition at µg/ml conc: 500; for IC50: read-out: IC₅₀. On the procedure:
Primary rat parenchymal hepatocytes were prepared from male Wistar rats (180-220 g) at mid-dark in the diurnal cycle by standard collagenase perfusion method as described previously. Ingebritsen et al. J. Biol. Chem., 254: 9986-9989, (1979). Aliquots of cells were suspended (100 mg in 2 ml) in Eagle's minimum essential medium (MEM) supplemented with 2% bovine albumin, and preincubated in a shaking water bath at about 37° under 95% O₂/5% CO₂ with compounds added as given in the data. […] Following a preincubation of about 15 to about 45 minutes as indicated, cholesterol synthesis in intact cells was assayed by 2-14C-acetate (1.8 mCi/mmol, 0.5 µCi/ml) incorporation for about 30 to about 60 minutes (previously shown to be time-linear) into total digitonin-precipitable sterols. […] Percent inhibition was calculated from the average of duplicates vs. triplicate vehicle controls conducted simultaneously.
The primary rat hepatocyte assay for cholesterol bio-synthesis inhibition was conducted as described in Example 2 except the preincubation was about 45 minutes and the 14C-acetate incorporation was about 30 minutes. The indicated compounds were purified from the same natural product source as the mixture used in Example 2. […] Two-component mixtures of the constituents separated from the tocotrienol mixture were tested under the conditions indentical to Table 2A.

[3] abbreviates: Rattus norvegicus, Hepatocyte, 15 min preincubation.
[4] abbreviates: Rattus norvegicus, Hepatocyte, Expt. # 1, 45 min preincubation, 30 min incorporation.
Where [5] appears, read: Rattus norvegicus, Hepatocyte, Expt. # 2, 45 min preincubation, 30 min incorporation.

For “3,4-dihydro-2-methyl-2-(4,8,12-trimethyltrideca-3(E),7(E),11-trienyl)-2H-1-benzopyran-6-ol [d,1-Tocotrienol]”, the “% Inhibition 14C-Ac” value in experiment [1] was 69%. In addition, the “% Suppression HMG-CoA Reductase” value with HMG-CoA reductase came out at 62%.

With `CC(C)=CCC/C(C)=C/CC/C(C)=C/CCC1(C)CCc2cc(O)c(C)c(C)c2O1` (racemic) [Ex. 24, 3,4-dihydro-2,7,8-trimethyl-2-(4,8,12-trimethyltrideca-3(E),7(E),11-trienyl)-2H-1-benzopyran-6-ol], in experiment [1], the inhibition at 10 µM turned out to be 75%. Besides, in the experiment with Hepatic HMGCoA Reductase, the “Hepatic HMGCoA Reductase Activity (mean ± SEM)” value is 266 ± 24 mU/mg and the “Hepatic HMGCoA Reductase Activity % of Control” value is recorded as 56%. In the experiment on Lipid Metabolism (Table 6, synthetic compound, 4 weeks, control 158.8(±9.0)), the “Serum Cholesterol” value is on record as 121.2(±2.2) mg/dl. Further, in the experiment with Lipid Metabolism (Table 6), the “HDL-Cholesterol [% of Control]” value was determined as 87.0%, the “LDL-Cholesterol [% of Control]” value is on record as 54.8%, the “Serum Cholesterol [% of Control]” value worked out at 76.3% and the “Serum Triglycerides [% of Control]” value is 100.7%. For the same compound, in the experiment with Lipid Metabolism (Table 6, control 1.938), the HDL/LDL was 3.080. Also, the LDL-Cholesterol with Lipid Metabolism (Table 6, control 52.8 (±1.1)) was 28.9(±1.2) mg/dl. Further, the “Serum Triglycerides” value with Lipid Metabolism (Table 6, control 63.4(±2.1)) was 63.9(±1.6) mg/dl. For the same compound, the HDL-Cholesterol in the experiment on Lipid Metabolism (Table 6, control 102.3(±3.0)) was 89.0(±2.9) mg/dl. In the experiment with HMG-CoA reductase, the “% Suppression HMG-CoA Reductase” value is listed as 65%.

Turning to `CC(=O)Oc1cc2c(c(C)c1C)OC(C)(CC/C=C(\C)CC/C=C(\C)CCC=C(C)C)CC2` (racemic) [Ex. 33, 3,4-Dihydro-2,7,8-Trimethyl-2-(4,8,12-Trimethyltrideca-3(E),7(E), 11-trienyl)-2H-1-Benzopyran-6-Yl Acetate], in the experiment with Hepatic HMGCoA Reductase, the “Hepatic HMGCoA Reductase Activity (mean ± SEM)” value is 236 ± 23 mU/mg and the “Hepatic HMGCoA Reductase Activity % of Control” value is 49%.

For `CC(C)=CCC/C(C)=C/CC/C(C)=C/CCC1(C)CCc2cc(OC(=O)c3cccnc3)c(C)c(C)c2O1` (racemic) [Ex. 34, 3,4-Dihydro-2,7,8-Trimethyl-2-(4,8,12-Trimethyl 3(E), 7(E),11-tridecatrienyl)-2H-1 Benzopyran-6-Yl-3-Pyridine Carboxylate], in the experiment with Hepatic HMGCoA Reductase, the “Hepatic HMGCoA Reductase Activity (mean ± SEM)” value is listed as 156 ± 21 mU/mg and the “Hepatic HMGCoA Reductase Activity % of Control” value came to 33%.

With `CC(C)=CCC/C(C)=C/CC/C(C)=C/CCC1(C)CCc2c(C)c(O)c(C)c(C)c2O1` (racemic) [d,1-α-tocotrienol, 3,4-dihydro-2,5,7,8-tetramethyl-2-(4,8,12-trimethyltrideca-3(E),7(E),11-trienyl)-2H-1-benzopyran-6-ol, reference compound], the inhibition at 41 µg/mL in experiment [2] (Rattus norvegicus, Hepatocyte, 41 µg/ml (approx. 100 µM), 15 min preincubation, 60 min incorporation) amounted to 4%. In experiment [2] (setting [3]), this compound came in with an inhibition at 210 µg/mL of 17%. The inhibition at 10 µM in experiment [1] came to 20%. The “% Suppression HMG-CoA Reductase” value with HMG-CoA reductase is 19%.

Consider `Cc1c(C)c2c(c(C)c1O)CC[C@@](C)(CCC[C@H](C)CCC[C@H](C)CCCC(C)C)O2` [d-α-tocopherol, reference compound], for which the IC₅₀ result in experiment [2] (Expt. # 1, 45 min preincubation, 30 min incorporation) is reported as “no inhib”. Further, in experiment [2] (setting [3]), the inhibition at 210 µg/mL amounted to 0%. In experiment [2] (setting [4]), the inhibition at 250 µg/mL was 0% and the inhibition at 500 µg/mL is 2%. Besides, in experiment [2] (setting [5]), the inhibition at 250 µg/mL amounted to 0% and the inhibition at 500 µg/mL worked out at 0%.

On to `CC(C)=CCC/C(C)=C/CC/C(C)=C/CC[C@]1(C)CCc2c(C)c(O)c(C)c(C)c2O1` [d-α-tocotrienol, reference compound], for which the inhibition at 125 µg/mL in experiment [2] (Rattus norvegicus, Hepatocyte, 125 µg/ml, Expt. # 2, 45 min preincubation, 30 min incorporation, read-out: % Inhibition at µg/ml conc: 125) was 8%. Moreover, in experiment [2] (setting [4]), the inhibition at 250 µg/mL was 8%, the inhibition at 500 µg/mL came out at 12% and the IC50 was > 1000 µg/mL. Further, in experiment [2] (setting [5]), the inhibition at 250 µg/mL turned out to be 20%, the inhibition at 500 µg/mL is 33% and the IC50 is 1300 µg/mL (≈ 3.06 mM).

For the compound α-Tocotrienol [reference compound], the figures for the pIC50 in experiment [1] (2 hr. Incubation) and in experiment [1] (4 hr. Incubation) were 3.42 and 4.03, respectively. Further, the “Rel. Potency” value in experiment [1] (2 hr. Incubation) is 0.02; in experiment [1] (4 hr. Incubation), 0.03.

As to γ-Tocopherol [reference compound], the “% Inhibition 14C-Ac” value in experiment [1] was 3%. Moreover, the “% Suppression HMG-CoA Reductase” value in the experiment on HMG-CoA reductase was determined as 0%.

These data come from patent publication EP0421419A2, “Tocotrienols in the treatment of hypercholesterolemia, hyperlipidemia and thromboembolic disorders” (Bristol-Myers Squibb Company, priority 1989, dated 1991).
